The subject of data set [1] is Store-operated calcium entry (SOCE). Nature of the data set: SOCE in HEK cells, tBhQ store depletion and Ca2+ re-addition, Fura-2 calcium imaging. The format is cell-based, human. The conditions noted are these: for percentage of SOCE activity: compared to control; for activity at 10 µM: HEK293, compound 10 μM, tBhQ 50 μM, mean ± SEM of three experiments, read-out: % SOCE residual activity (10 μM). On the procedure:
With this approach, 24 oxadiazole-bearing pyrazoles were synthesized and tested in human embryonic kidney (HEK) cells for SOCE inhibition. […] After 600 s, Ca^2+ was added and intracellular levels were measured in fluorescence microscopy with the calcium dye Fura-2. […] For these compounds, the cell viability was therefore evaluated. An MTT assay was performed and the compounds that affected cell viability by more than 25% at 10 μM were discarded (23, 31, and 33). […] According to both activity and cytotoxicity, for the selected five compounds, the representative traces are depicted in Figure 3.
Human embryonic kidney (Hek) cells were obtained from ATCC (Rockville, MD, USA) and were cultured in Dulbecco’s Modified Eagle’s Medium (DMEM; Sigma-Aldrich, Italy), supplemented with 10% heat-inactivated FBS (Gibco, Italy), L-glutamine […] (Sigma-Aldrich, Italy), 10 U/mL penicillin, and […] streptomycin (Sigma-Aldrich, Italy) at 37 °C, under a 5% CO2 humidified atmosphere. […]
(KRB, 135 mM NaCl, 5 mM KCl, 0.4 mM KH2PO4, 1 mM MgSO4, 5.5 mM glucose, 20mM HEPES, pH 7.4) containing 2 mM CaCl2 (30 min, room temperature). After which, cells were washed and incubated with KRB for other 30 min to allow de-esterification of […]. To measure SOCE, cells were depleted of calcium in the endoplasmic reticulum with 2,5-t-butylhydroquinone (tBhQ, 50 […]
For calcium imaging experiments, Hek cells were plated onto pre-treated poli-L-lysine (P4832, Sigma-Aldrich, Italy) glass coverslips of 24 mm in 6-well plates Cells were loaded with 5 µM of Fura-2 AM, 0.02% of Pluronic-127 (Life technologies, Italy) and 10 µM of sulfinpyrazone (Sigma-Aldrich, Italy) in KRB containing 2 mM CaCl2 for 30 min at RT. Cells were then washed once with KRB for 15 min for de-esterification of Fura-2 AM.
Coverslips were mounted into the acquisition chamber and placed on the stage of a Leica DMI6000 epifluorescent microscope equipped with S Fluor ×40/1.3 objective. Fura-2 AM was excited by alternate 340 and 380 nm using a Polychrome IV monochromator (Till Photonics, Germany), and the probe emission light was filtered through 520/20 bandpass filter and collected by a cooled CCD camera (Hamamatsu, Japan). The fluorescence signals were acquired and processed using MetaFluor software (Molecular Device, Sunnyvale, CA, USA). To quantify the differences in the amplitudes of Ca2+ transients, the ratio values were normalized using the formula ΔF/F0. […]
In calcium imaging experiments, data are presented as Mean +/- standard error (SEM) or Median and interquartile range (IQR). The normality of data distributions was assessed using the Shapiro−Wilk test. Nonparametric (Mann−Whitney U test and one-way) statistical analysis was used for comparisons of data. All statistical assessments were two-sided and a value of P <0.05 was considered statistically significant. Statistical analyses were performed using GraphPad Prism software (GraphPad Software, Inc., USA).

Data set [2] relates to calcium entry in resting cells. Nature of the data set: Intracellular Ca2+ in resting cells in the presence of extracellular Ca2+. The class given is cell-based, human. The conditions noted are these: 10 μM, extracellular Ca2+ present, 300 s of observation, compared to control. As to the method: We also investigated whether 37 required the triggered opening of the Orai channel to elicit its effect. […] The same effect was also evident at 3 (118.2%) and 1 μM (116.7%) but was not detected at concentrations above 10. In particular, at 30 and 100 μM, 37 acts as weak SOCE inhibitor, with a percentage of residual activity of about 70%.

Data set [3] in a line: In vitro hepatic metabolic stability in MLS9 fraction with NADPH. Conditions: after 1 h of incubation. The format is in vitro ADME, mouse. On the procedure:
The five selected inhibitors (22, 27, 29, 32, and 42) and the identified SOCE enhancer (37) were then evaluated for their in vitro hepatic metabolic stability. To this aim, the candidates were incubated in MLS9 fraction supplied with NADPH and the residual substrate was measured after 1 h. Under these conditions, the oxadiazole-bearing pyrazoles resulted overall metabolically stable, with only two compounds affording a residual substrate lower than 80% and the remaining molecules higher than 90% after incubation (Table 1 and Supporting Information). In contrast, Pyr3 and CIC-37, which suffered from hydrolysis of the ester function, provided a residual substrate of 43 and 74%, respectively (Table 1).[35] Similarly, the residual substrate of Synta66 in MLM is of 15%, due to an important hydrolysis of the amide group, absent in our class (Table 1).[39]
In vitro metabolism and purity of lead compounds
In vitro metabolism studies
Mouse liver S9 (MLS9) (pooled male mouse CD-1, protein concentration: 20 mg/mL) were purchased from Corning B.V. Life Sciences (Amsterdam, The Netherlands) and used throughout this study. The standard incubation mixture (250 μL final volume) was carried out in a 50 mM TRIS (tris[hydroxymethyl]-aminomethane) + 150 mM KCl buffer (pH 7.4) containing 3.3 mM MgCl2, 1.3 mM β-NADP-Na 2, 3.3 mM glucose 6-phosphate, 0.4 Units/mL glucose 6-phosphate dehydrogenase (NADPH regenerating system), 5 μL of acetonitrile ([…]), and the substrate compounds at a concentration of 50 µM. After pre-equilibration of the mixture, an appropriate volume of MLS9 suspension was added to give a final protein concentration of 1.5 mg/mL. The mixture was shaken for 60 min at 37 °C. Each incubation was stopped by addition of 250 μL of ice-cold acetonitrile, vortexed, and centrifuged at 13000 rpm for 10 min. Control incubations were carried out without the presence of MLS9 suspension or cofactors or in absence of the substrate.
LC-UV method for purity and metabolic stability data determination: a Shimadzu HPLC system (Shimadzu, Kyoto, Japan), consisting of two LC-10AD Vp module pumps, an SLC-10A Vp system controller, an SIL-10AD Vp autosampler, and a DGU-14-A on-line degasser were used for the analysis. The SPD-M10Avp photodiode array detector was used to detect the analytes. LC-Solution 1.24 software was used to process the chromatograms.
• Column: Phenomenex Kinetex XB C18, 150 × 4.6 mm (5 µm d.p.) protected with a SecurityGuard® (Torrance, CA, USA).
A: 0.2% formic acid in water;
B: 0.2% formic acid in acetonitrile.

The nature of data set [4]: MTT cell viability assay in HEK cells. The conditions noted are these: human, mean ± SEM. The format is cell-based, human. On the procedure:
(§1) With this approach, 24 oxadiazole-bearing pyrazoles were synthesized and tested in human embryonic kidney (HEK) cells for SOCE inhibition. To this aim, intracellular Ca^2+ stores of HEK cells were emptied with t-butylhydroquinone (tBhQ, 50 μM) in the presence of the compounds at 10 μM concentration. After 600 s, Ca^2+ was added and intracellular levels were measured in fluorescence microscopy with the calcium dye Fura-2. […] For these compounds, the cell viability was therefore evaluated. An MTT assay was performed and the compounds that affected cell viability by more than 25% at 10 μM were discarded (23, 31, and 33). […] According to both activity and cytotoxicity, for the selected five compounds, the representative traces are depicted in Figure 3. […]
(§2) 3-(4,5-Dimethylthiazol-2-yl)-2,5-diphenyltetrazolium bromide (MTT) assay Hek cells were plated in 24-wells plate at 20.000 cells per well. After 24 h, cells were treated for other 24 h with the selected compounds. At the end of treatments, medium was removed and substituted by 300 µL of MTT reagent at the final concentration of 0.25 mg/mL for 60 min at 37 °C. Reactions were then stopped and the crystals were solubilized by adding isopropyl alcohol/HCl (1:1; vol:vol) (Sigma-Aldrich Inc., Italy), before reading the absorbance at 570 nm, using the multi-plate reader Victor 3V (PerkinElmer, Milan, Italy). […]
(§3) All statistical assessments were two-sided and a value of P <0.05 was considered statistically significant. Statistical analyses were performed using GraphPad Prism software (GraphPad Software, Inc., USA).
For orientation: Tetrazolium dyes change colour on reduction, which living cells bring about.

The test system of the next data set is HEK cells. The data set is described as follows: MTT cell viability assay in HEK cells. The class given is cell-based, human. Conditions: 10 μM. As to the method: as §1, §2, §3

Marks after values point to notes of the source that are not given here.

Turning to `CCCCCC(=O)Nc1ccc(-n2ncc(-c3nc(C)no3)c2C(F)(F)F)cc1` [compound 37], the “percentage of SOCE activity” value in data set [1] (1 μM) amounted to 116.7%. For the same molecule, the “percentage of SOCE activity” value in data set [1] (3 μM) amounted to 118.2%. In addition, in data set [1] (10 μM, vs control), the “area under the curve (AUC) of calcium entry” value is recorded as “significantly increased”, the “peak amplitude of calcium entry” value is “significantly increased” and the “slope of the Ca2+-rise” value is “without affecting”. The activity at 30 µM in data set [1] (Homo sapiens, HEK293, 30 μM, read-out: percentage of residual activity (SOCE)) is approximately 70%. For the same molecule, in data set [1] (Homo sapiens, HEK293, 100 μM, read-out: percentage of residual activity (SOCE)), the activity at 100 µM was approximately 70%. For the same molecule, the activity at 10 µM in data set [1] (Homo sapiens, vs control) was 146 ± 4.5%. Further, the “calcium entry in resting cells” value in data set [2] is listed as “did not elicit any significant calcium entry”. In addition, the “MLS9 stability (residual substrate)” value in data set [3] is on record as 91% ^b.
For `Cc1ccc(S(=O)(=O)Nc2ccc(-n3ncc(-c4nc(C)no4)c3C(F)(F)F)cc2)cc1` [compound 42], the melting point (usually the temperature, or range, at which the solid turns liquid) was 149 to 150 °C. Besides, the activity at 10 µM in data set [1] (Homo sapiens, vs control) amounted to 47.6 ± 4.2%. For the same molecule, the half-maximal inhibitory concentration (IC50) (commonly the point on the concentration scale where inhibition reaches its midpoint) in data set [1] (Homo sapiens, HEK293, mean ± SEM) worked out at 9.5 ± 1.7 µM. Also, in data set [3], the “MLS9 stability (residual substrate)” value is recorded as 76% ^b. Also, the viability (in general, a read-out of living cells in per cent, often relative to untreated cells) at 24 h, 10 µM in data set [4] stood at 79.4 ± 4.2%. Also, in the data set on HEK cells, the cytotoxicity result is reported as “not cytotoxic”.
